Experimental data reported in patent US10201586B2 (dated 2019).
Like-named read-outs stand apart in the source and are kept apart here. Where a SMILES comes first, the peptide text is derived from it. Bridges are numbered along the chain shown (N, C = ends). [ ]: non-standard residue; d: D form. The star is where a group is joined. X2 = NCCCC[C@H](NC(=O)CCC(=O)NCCCOCCOCCOCCCN*)C(=O)N[C@@H](CCCCN)C(=O)N[C@@H](CCCCNC(=O)CCCC[C@@H]1SC[C@@H]2NC(=O)N[C@@H]21)C(N)=O; Tle = CC(C)(C)[C@H](N)C(=O)O; hCys = N[C@@H](CCS)C(=O)O; Aib = CC(C)(N)C(=O)O; Sar = CNCC(=O)O

Legend:
TFPI [1] = target: T1, TFPI (Homo sapiens, UniProt P10646); test: IC50 [nm]
Target sequence in this assay (P10646 29-304 limits assumed): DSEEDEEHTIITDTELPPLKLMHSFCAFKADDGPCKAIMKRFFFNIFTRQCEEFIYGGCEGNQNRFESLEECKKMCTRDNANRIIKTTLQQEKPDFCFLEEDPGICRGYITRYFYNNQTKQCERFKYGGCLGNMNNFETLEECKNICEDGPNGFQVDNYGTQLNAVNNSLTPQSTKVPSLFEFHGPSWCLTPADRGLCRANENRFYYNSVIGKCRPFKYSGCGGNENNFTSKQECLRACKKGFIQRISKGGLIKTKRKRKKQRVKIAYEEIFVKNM

human plasma = details: up to 24 hour
[2] = system: thrombin generation in FVIII- or FIX-deficient or FVIII-inhibited plasma; test: plasma-based thrombin generation assay (calibrated automated thrombography); format: biochemical, human
[3] = target: T2, Tissue Factor Pathway Inhibitor (TFPI) (Homo sapiens, UniProt P10646); test: IC50 ELISA | IC50 [nM]
Target sequence in this assay (P10646 29-304 limits assumed): as above

[4] = target: T3, recombinant human full length TFPI (Homo sapiens, UniProt P10646); test: Progression curve | EC50 (µM)
Text: Table printed on a drawing sheet, FIGURE 62F
Head of the field: Progression curve | EC50 (µM)
Designation “n.a.” is “not analyzed.” Progression curve data were obtained using the FXa inhibition assay described in Example 3 with recombinant human full length TFPI. Assay concentration of progression curve assay was 0.0025% (0.1% Tween80 used in peptide dilution buffer).
First copying reader's note: Last part (62F) of a table continued over FIG. 62A-62F.

[5] = target: T2, Tissue Factor Pathway Inhibitor (TFPI); test: Progress Curves of Inhibition of FXa | % Inhibit (2.5µM)
TFPI [6] = target: T1, TFPI; test: Extrinsic Tenase Inhibition by TFPI | % Inhibit (2.5µM)
TFPI [7] = target: T1, TFPI; test: as above; remark: listed apart in the source
TFPI [8] = target: T1, TFPI; test: % Inhibition @ 2.5µM
TFPI [9] = target: T1, TFPI; test: Extrinsic Tenase Inhibition by TFPI | % Inhibit (2.5µM); details: read-out: Extrinsic Tenase Inhibition by TFPI | % Inhibit ([…])
Target sequence in this assay (P10646 29-304 limits assumed): as above

[10] = target: T2, Tissue Factor Pathway Inhibitor (TFPI); test: IC50 ELISA | IC50 [nM]; remark: listed apart in the source
Target sequence in this assay (P10646 29-304 limits assumed): as above

[11] = target: T3, recombinant human full length TFPI; test: Progression curve | EC50 (µM); remark: listed apart in the source
[12] = target: T2, Tissue Factor Pathway Inhibitor (TFPI); test: IC50 ELISA | IC50 [nM]; remark: listed apart in the source
Target sequence in this assay (P10646 29-304 limits assumed): as above

T3 sequence (P10646 29-304 limits assumed): as above

CSCC[C@@H]1NC(=O)CNC(=O)[C@@H](NC(=O)[C@H](Cc2ccccc2)NC(=O)[C@H](Cc2c[nH]c3ccccc23)NC(=O)[C@H](CCCCN)NC(=O)[C@H](Cc2ccc(O)cc2)NC(=O)[C@H](CCCNC(=N)N)NC(=O)[C@H](CO)NC(=O)[C@H](C)NC(=O)CNC(=O)[C@H](CO)NC(C)=O)CSSC[C@@H](C(=O)N[C@H](C(=O)N[C@@H](Cc2c[nH]c3ccccc23)C(=O)N[C@H](C(=O)N[C@@H](CCCCN)C(N)=O)C(C)C)C(C)C)NC(=O)[C@H](CO)NC(=O)[C@H](CCSC)NC(=O)[C@H]([C@@H](C)O)NC(=O)CNC(=O)[C@H](CCCCN)NC(=O)[C@H](CCSC)NC(=O)[C@H](CC(=O)O)NC(=O)[C@H](CCCNC(=N)N)NC1=O [JBT0320 | 1103] (Ac-SGASRYKWFCGMRDMKGTMSCVWVK-NH2; disulfide 10-21)
IC50 (TFPI [1]): 977 nM

Ac-FQSKpNVHVDGYFERL-Aib-AKL-NH2
cleaved bond (human plasma): Val9-Asp10

CC(=O)N[C@@H](CO)C(=O)NCC(=O)N[C@H](C(=O)NCC(=O)N[C@@H](CCCNC(=N)N)C(=O)N[C@@H](CC(C)C)C(=O)N[C@@H](CCC(N)=O)C(=O)N[C@H](C(=O)N[C@@H](C)C(=O)N[C@@H](Cc1ccccc1)C(=O)N[C@@H](CCC(N)=O)C(=O)N[C@@H](CO)C(=O)N[C@@H](CCCCN)C(=O)N[C@@H](CCCCN)C(=O)N[C@@H](CC(N)=O)C(=O)N[C@H](C(=O)N[C@@H](Cc1ccccc1)C(=O)N[C@H](C(=O)N[C@@H](Cc1ccccc1)C(=O)NCC(=O)N[C@@H](Cc1ccc(O)cc1)C(=O)N[C@@H](CC(C)C)C(=O)N[C@@H](Cc1ccccc1)C(=O)N[C@@H](CCC(=O)O)C(=O)N[C@@H](CCCNC(=N)N)C(=O)N[C@@H](CC(C)C)C(=O)N[C@@H](CCCNC(=N)N)C(=O)N[C@@H](C)C(=O)N[C@@H](CCCCN)C(=O)N[C@@H](CC(C)C)C(=O)N[C@H](C(=O)N[C@@H](CO)C(N)=O)[C@@H](C)O)C(C)C)C(C)C)C(C)C)C(C)C [JBT0047] (Ac-SGVGRLQVAFQSKKNVFVFGYLFERLRAKLTS-NH2)
FVIII-equivalent activity (mU/ml) in Hem A plasma @ 1 μM peptide [2]: 45 mU/ml

CC(=O)N[C@@H](Cc1ccccc1)C(=O)N[C@@H](CCC(N)=O)C(=O)N[C@@H](CO)C(=O)N[C@@H](CCCCN)C(=O)N1CCC[C@@H]1C(=O)N[C@@H](CC(N)=O)C(=O)N[C@H](C(=O)N[C@@H](Cc1c[nH]cn1)C(=O)N[C@H](C(=O)N[C@@H](CC(=O)O)C(=O)N[C@@H]1CSSCC[C@@H](C(=O)N[C@@H](CCCNC(=N)N)C(=O)N[C@@H](CC(C)C)C(=O)NC(C)(C)C(=O)N[C@@H](C)C(=O)N[C@@H](CCCCN)C(=O)N[C@@H](CC(C)C)C(N)=O)NC(=O)[C@H](Cc2ccccc2)NC(=O)[C@H](Cc2ccc(O)cc2)NC1=O)C(C)(C)C)C(C)C [JBT2494 | 4209, Ac-FQSKpNVH-Tle-D[cYF-Hcy-]RL-Aib-AKL-NH2] (Ac-FQSK[dP]NVH[Tle]D[dC]YF[hCys]RL[Aib]AKL-NH2; disulfide 11-14)
IC50 [3]: 2.84 nM | EC50 [4]: 2 nM

CSCC[C@@H]1NC(=O)CNC(=O)[C@@H](NC(=O)[C@H](Cc2ccccc2)NC(=O)[C@H](Cc2c[nH]c3ccccc23)NC(=O)[C@H](CCCCN)NC(C)=O)CSSC[C@@H](C(=O)N[C@H](C(=O)N[C@@H](Cc2c[nH]c3ccccc23)C(=O)N[C@H](C(=O)N[C@@H](CCCCN)C(=O)N[C@@H](Cc2ccccc2)C(=O)N[C@@H](CCCNC(=N)N)C(=O)N[C@@H](Cc2ccc(O)cc2)C(=O)N[C@@H](CC(=O)O)C(=O)N[C@H](C(=O)N[C@@H](CO)C(N)=O)[C@@H](C)O)C(C)C)C(C)C)NC(=O)[C@H](CO)NC(=O)[C@H](CCSC)NC(=O)[C@H]([C@@H](C)O)NC(=O)CNC(=O)[C@H](CCCCN)NC(=O)[C@H](CCSC)NC(=O)[C@H](CC(=O)O)NC(=O)[C@H](CCCNC(=N)N)NC1=O [JBT0324 | 1155] (Ac-KWFCGMRDMKGTMSCVWVKFRYDTS-NH2; disulfide 4-15)
IC50 (TFPI [1]): 1930 nM

Ac- KKPLAVQLHVSKRSKEMALARLYYKTSKK- NH2 (SEQ ID NO: 2129) (Ac-KKPLAVQLHVSKRSKEMALARLYYKTSKK-NH2) [JBT0229]
Progress Curves of Inhibition of FXa | % Inhibit ([…]) [5]: 0% | Extrinsic Tenase Inhibition by TFPI | % Inhibit ([…]) (TFPI [6]): 0%

Ac-ASFPLAVQLHVSKRSKE-NH2 (SEQ ID NO: 2313) [JBT0363]
Extrinsic Tenase Inhibition by TFPI | % Inhibit ([…]) (TFPI [7]): 9% | % Inhibition @ […] (TFPI [8]): 0%

CC[C@H](C)[C@H](NC(=O)[C@H](CC(=O)O)NC(=O)[C@@H]1CCCN1C(=O)[C@H](Cc1c[nH]c2ccccc12)NC(=O)[C@H](CCSC)NC(=O)[C@@H](NC(=O)[C@H](Cc1c[nH]c2ccccc12)NC(=O)[C@H](Cc1ccccc1)NC(=O)[C@H](Cc1ccc(O)cc1)NC(=O)[C@H](CCCNC(=N)N)NC(=O)[C@@H]1CCCN1C(=O)[C@H](Cc1c[nH]cn1)NC(=O)[C@@H](NC(=O)[C@H](CCC(N)=O)NC(=O)[C@H](Cc1c[nH]c2ccccc12)NC(=O)[C@@H](NC(=O)CNC(=O)[C@H](CO)NC(=O)[C@H](CCCCN)NC(=O)[C@H](CCCCN)NC(C)=O)C(C)C)[C@@H](C)O)[C@@H](C)O)C(=O)N[C@@H](CCCCN)C(=O)NCC(=O)N[C@@H](CCC(=O)O)C(=O)N[C@H](C(=O)N[C@H](C(=O)N[C@H](C(=O)N[C@@H](CC(C)C)C(=O)N[C@@H](Cc1ccccc1)C(=O)NCC(=O)N[C@H](C(=O)N[C@@H](CO)C(=O)NCCCOCCOCCOCCCNC(=O)CCC(=O)N[C@@H](CCCCN)C(=O)N[C@@H](CCCCN)C(=O)N[C@@H](CCCCNC(=O)CCCC[C@@H]1SC[C@@H]2NC(=O)N[C@@H]21)C(N)=O)[C@@H](C)O)C(C)C)[C@@H](C)CC)C(C)C [JBT0103] (Ac-KKSGVWQTHPRYFWTMWPDIKGEVIVLFGTS-X2)
inhibition at […] (TFPI [9]): 21%

CSCC[C@@H]1NC(=O)CNC(=O)[C@@H](NC(=O)[C@H](Cc2ccccc2)NC(=O)[C@H](Cc2c[nH]c3ccccc23)NC(=O)[C@H](CCCCN)NC(=O)[C@H](Cc2ccc(O)cc2)NC(=O)[C@H](CCCNC(=N)N)NC(=O)[C@H](CO)NC(=O)[C@H](C)NC(=O)CNC(=O)[C@H](CO)NC(C)=O)CSSC[C@@H](C(=O)N[C@H](C(=O)N[C@@H](Cc2c[nH]c3ccccc23)C(=O)N[C@H](C(=O)N[C@@H](CCCCN)C(=O)N[C@@H](Cc2ccccc2)C(=O)N[C@@H](CCCNC(=N)N)C(=O)N[C@@H](Cc2ccc(O)cc2)C(=O)N[C@@H](CC(=O)O)C(=O)N[C@H](C(=O)N[C@@H](CO)C(N)=O)[C@@H](C)O)C(C)C)C(C)C)NC(=O)[C@H](CO)NC(=O)[C@H](CCSC)NC(=O)[C@H]([C@@H](C)O)NC(=O)CNC(=O)[C@H](CCCCN)NC(=O)[C@H](CCSC)NC(=O)[C@H](CC(=O)O)NC(=O)[C@H](CCCNC(=N)N)NC1=O [JBT0120]
peak thrombin and peak time ([2]; FIGS. 11A and 11B): improved peak thrombin and peak time, dose dependently

Ac-FQSKpNVHV-C(ME-400MA)-GYFERL-Aib-AKL-NH2 [JBT2403 | 4122]
IC50 [10]: 22.9 nM | EC50 [11]: 15.3 nM

CC(=O)N[C@@H](Cc1ccccc1)C(=O)N[C@@H](CCC(N)=O)C(=O)N[C@@H](CO)C(=O)N[C@@H](CCCCN)C(=O)N1CCC[C@@H]1C(=O)N[C@@H](CC(N)=O)C(=O)N[C@H](C(=O)N[C@@H](Cc1c[nH]cn1)C(=O)N[C@H](C(=O)N[C@@H](CC(=O)O)C(=O)N[C@@H]1CSSC[C@@H](C(=O)N[C@@H](CCCNC(=N)N)C(=O)N[C@@H](CC(C)C)C(=O)NC(C)(C)C(=O)N[C@@H](C)C(=O)N[C@@H](CCCCN)C(=O)N[C@@H](CC(C)C)C(N)=O)NC(=O)[C@H](Cc2ccccc2)NC(=O)[C@H](Cc2ccc(O)cc2)NC1=O)C(C)(C)C)C(C)C [JBT2495 | 4210, Ac-FQSKpNVH-Tle-D[cYFC]RL-Aib-AKL-NH2] (Ac-FQSK[dP]NVH[Tle]D[dC]YFCRL[Aib]AKL-NH2; disulfide 11-14)
IC50 [3]: 3.48 nM | EC50 [4]: 2.1 nM

Ac-FQSKp-C(ME-400MA)-VHVDGYFERL-Aib-AKL-NH2 [JBT2402 | 4121]
IC50 [10]: 20.5 nM | EC50 [11]: 2.6 nM

CC(=O)N[C@@H](Cc1ccccc1)C(=O)N[C@@H](CCC(N)=O)C(=O)N[C@@H](CO)C(=O)N[C@@H](CCCCN)C(=O)N(C)CC(=O)N[C@@H](CC(N)=O)C(=O)N[C@H](C(=O)N[C@@H](Cc1ccccc1)C(=O)N[C@H](C(=O)N[C@H](C(=O)NCC(=O)N[C@@H](Cc1ccc(O)cc1)C(=O)N[C@@H](Cc1ccccc1)C(=O)N[C@@H](CCC(=O)O)C(=O)N[C@@H](CCCNC(=N)N)C(=O)N[C@@H](CC(C)C)C(=O)NC(C)(C)C(=O)N[C@@H](C)C(=O)N[C@@H](CCCCN)C(=O)N[C@@H](CC(C)C)C(N)=O)[C@@H](C)O)C(C)C)C(C)C [JBT1585 | 4018] (Ac-FQSK[Sar]NVFVTGYFERL[Aib]AKL-NH2)
IC50 [12]: 15.1 nM

Ac-FQSK-dtc-NVHVDGYFERL-Aib-AKL-NH2 [JBT2285 | 4047]
IC50 [12]: 3.44 nM
